Entries after “also recorded” stand apart in the source; their conditions may differ.
Tests used:
[1] = system: HEKα15#17 cells (control cell line without sweet receptor); test: Same calcium assay on the control cell line without sweet receptor; type: cell-based; conditions: FIG. 1 grey bars
Experimental: (§1) For measurement of human T1R2/T1R3 taste receptor dependent activity a control cell line without sweet receptor based on HEK 293 and a cell line expressing the sweet receptor hT1R2/hT1R3 based on HEK 293, respectively, are seeded into assay plates and labelled with the calcium sensitive fluorescence dye Fluo4-AM in a culture medium. The potential modulators, e.g. the test compound, are added to the control cell line and to the cell line expressing the sweet receptor hT1R2/hT1R3, respectively.
(§2) A stable cell line based on HEK293 was termed HEKα15#17 served as control for functional Gα-protein and a stable cell line HEKGα15#17R2R3b#8 C6 served as cell line expressing the sweet receptor hT1R2/hT1R3 based on HEKGα15#17.
(§3) The cells were cultured in DMEM/HG and 10% FCS Gold, 4 mM L-Glutamin, 1.3 mg/ml Geneticin (HEKGα15#17) or the same medium additionally containing 6 μg/ml Blasticidin (HEKGα15#17R2R3b#8 C6). The medium for the assay was DMEM/HG (high glucose, 4.5 g/l glucose, Life Technologies) and 10% FCS Gold, 4 mM L-Glutamin (HEKGα15#17) or DMEM/LG (low glucose, 1 g/l glucose; Life Technologies) and 10% FCS Gold (HEKGα15#17R2R3b#8C6), respectively. 1.3 Evaluation of the sweet receptor modulating activity of rosmarinic acid
In order to evaluate the sweet receptor modulating activity of rosmarinic acid, rosmarinic acid was added to the cultures in a concentration of 25 μM in a volume of 50 μl. Controls were KH-buffer (Krebs HEPES-buffer: 118 mM NaCl, 4.7 mM KCl, 1.2 mM MgSO4, 1.2 mM KH2PO4, 4.2 mM NaHCO3, 1.3 mM CaCl2, 10 mM Hepes, pH 7.4) either without or with sweetness enhancer.
Further controls for function of G-protein and receptor were isoproterenol Sigma Aldrich), ionomycin (1 μM, Calbiochem) and ATP (1 μM, Applichem).
For measurement of human T1R2/T1R3 taste receptor dependent activity, on day 1 of the test procedure the HEKα15#17 cells (control cell line without sweet receptor) and the HEKGα15#17R2R3b#8 C6 cells (cell line expressing the sweet receptor hT1R2/hT1R3), respectively, were transferred to low-glucose medium.
On day 2 the cells were seeded into assay plates at a density of 25.000 cells/well. Assay plates for fluorescence measurement (black clear bottom 96-cavity plates, Greiner Bio-One) were coated with poly-D-lysine. For direct comparison both cell lines (control cell line without sweet receptor and cell line expressing the sweet receptor hT1R2/hT1R3) were seeded into different cavities of the same assay plate. The plate was placed into the incubator for 48 hours at 37° C., 5% CO2, 100% relative humidity.
On day 4 the calcium assay was performed. For this assay, the cells were marked with Fluo4-AM in medium and KH-buffer. To each cavity 100 μl KH-Puffer/250 μM sulfinpyrazone/4 μM Fluo4-AM were added gently to 100 μl medium (final concentration of Fluo4-AM=2 μM, stock solution of Fluo4-AM 1 mM in DMSO, excitation at 485 nm, emission at 520 nm, Fisher Scientific, 58239 Schwerte, Germany).
The plate was placed into the incubator for 1 hour. In the mean time the test substances (“ligands”) were prepared in a separate plate (5 times concentrated, 150 μl/cavity, and then automatically 50 μl/cavity were transferred into the screening cell plate by pipetting robot (FLEX-station, Molecular Devices, Sunnyvale, Calif.).
The culture medium was carefully removed and 200 μl KH-buffer/250 μM sulfinpyrazone per cavity was added slowly. Cells were left in the FLEX-station for 20 minutes for adaptation, followed by measurement at 37° C.
In the bar diagram the grey bars (control—without hT1R2/hT1R3) indicate the measured Fluo4-AM fluorescence increase of the respective test compound added to the control cell line, the black bars (assay—with hT1R2/hT1R3) indicate the measured Fluo4-AM fluorescence increase of the respective test compound added to the cell line expressing the sweet receptor hT1R2/hT1R3.

[2] = molecular target: T1, human taste receptor T1R2/T1R3 (Homo sapiens, UniProt Q7RTX0+Q8TE23); test: Recombinant human taste receptor T1R2/T1R3 dependent cell based calcium assay (Fluo4-AM), cell line expressing the sweet receptor
T1 construct: expressed in transfected cells; host or cells: HEK293 stably expressing mouse G-alpha-15 (HEKGα15#17R2R3b#8 C6)
T1 sequence (Q8TE23 20-839): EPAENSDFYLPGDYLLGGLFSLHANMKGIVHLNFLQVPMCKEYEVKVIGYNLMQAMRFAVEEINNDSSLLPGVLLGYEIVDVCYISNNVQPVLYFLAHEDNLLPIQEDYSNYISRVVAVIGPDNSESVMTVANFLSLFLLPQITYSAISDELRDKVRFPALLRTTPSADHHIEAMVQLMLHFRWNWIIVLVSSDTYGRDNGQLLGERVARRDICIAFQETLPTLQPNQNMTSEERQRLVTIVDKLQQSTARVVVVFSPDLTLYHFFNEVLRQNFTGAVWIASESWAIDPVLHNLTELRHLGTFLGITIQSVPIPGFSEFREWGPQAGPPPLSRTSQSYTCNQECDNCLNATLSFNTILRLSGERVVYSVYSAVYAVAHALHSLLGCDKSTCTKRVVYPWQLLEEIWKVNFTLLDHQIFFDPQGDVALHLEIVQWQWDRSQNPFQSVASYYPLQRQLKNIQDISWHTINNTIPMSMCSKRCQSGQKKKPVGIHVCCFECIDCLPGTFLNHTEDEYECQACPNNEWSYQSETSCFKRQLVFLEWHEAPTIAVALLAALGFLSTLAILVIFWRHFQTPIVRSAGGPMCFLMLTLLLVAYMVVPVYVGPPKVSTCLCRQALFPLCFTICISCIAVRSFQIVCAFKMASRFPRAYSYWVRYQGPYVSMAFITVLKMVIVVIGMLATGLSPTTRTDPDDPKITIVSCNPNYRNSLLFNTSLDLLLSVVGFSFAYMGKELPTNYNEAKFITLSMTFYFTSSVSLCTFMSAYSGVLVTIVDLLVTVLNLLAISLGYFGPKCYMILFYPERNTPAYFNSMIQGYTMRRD
T1 sequence (Q7RTX0 21-852): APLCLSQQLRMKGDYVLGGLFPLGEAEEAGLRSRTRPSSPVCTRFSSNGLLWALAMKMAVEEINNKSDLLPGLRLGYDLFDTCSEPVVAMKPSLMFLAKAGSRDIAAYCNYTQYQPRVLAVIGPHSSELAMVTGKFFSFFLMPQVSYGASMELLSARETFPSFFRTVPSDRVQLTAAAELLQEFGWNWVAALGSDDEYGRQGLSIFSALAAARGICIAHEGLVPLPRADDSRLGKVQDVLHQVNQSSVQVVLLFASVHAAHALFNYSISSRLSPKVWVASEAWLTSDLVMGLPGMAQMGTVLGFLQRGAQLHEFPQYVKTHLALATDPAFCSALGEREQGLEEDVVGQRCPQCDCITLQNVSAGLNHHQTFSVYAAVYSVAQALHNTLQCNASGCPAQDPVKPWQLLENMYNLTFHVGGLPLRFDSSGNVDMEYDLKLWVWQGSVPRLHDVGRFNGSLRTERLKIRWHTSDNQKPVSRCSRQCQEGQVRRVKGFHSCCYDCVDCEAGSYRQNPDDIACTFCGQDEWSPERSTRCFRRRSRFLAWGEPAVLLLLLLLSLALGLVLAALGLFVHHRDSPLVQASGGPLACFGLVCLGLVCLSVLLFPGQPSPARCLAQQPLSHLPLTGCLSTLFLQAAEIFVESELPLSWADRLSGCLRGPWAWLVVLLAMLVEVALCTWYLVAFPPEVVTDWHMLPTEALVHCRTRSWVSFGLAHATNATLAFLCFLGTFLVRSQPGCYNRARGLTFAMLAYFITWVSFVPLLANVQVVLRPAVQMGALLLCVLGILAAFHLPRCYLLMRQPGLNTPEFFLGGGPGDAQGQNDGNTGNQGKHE
Experimental: as §1, §2
as §3, with “1.3 Evaluation of the sweet receptor modulating activity of rosmarinic acid” left out
On day 2 the cells were seeded into assay plates at a density of 25.000 cells/well. Assay plates for fluorescence measurement (black clear bottom 96-cavity plates, Greiner Bio-One) were coated with poly-D-lysine. […]

[3] = Taste and spit assay with a panel of trained sensory evaluators; type: in vivo, human; conditions: 5 panelists
Excerpt: The taste of a sample of a compound, e.g. rosmarinic acid, with regard to sweetness and/or sweetness enhancing properties, in other embodiments, may be assessed in vivo by using a panel of trained sensory evaluators experienced in the sweet taste estimation procedure, e.g. in the taste and spit assay as described e.g. in Example 2.
(§4) In these cases, panelists are asked to take a sample of the liquid to be assessed (test substance, e.g. rosmarinic acid) into the mouth and after some time allowed for taste perception to spit the sample out completely. Subsequently, the panelists are asked to rinse their mouth well with water or black tea to reduce any potential carry over effects. The tasting of a sample can be repeated if required.
In a first descriptive test (qualitative assessment for sweetness) the panelists are asked to taste the quality of single samples (maximum 3 subsequent samples). The individuals of the taste panel are asked to answer the following questions with regard to the quality of taste: 1) does the sample taste sweet?. 2) is there another taste detectable (bitter, sour, salty, umami)?. 3) is there an off- or aftertaste?. 4) is there anything else remarkable about the perception of the sample?
In the next step (assessment of sweetness enhancing, e.g. fructose enhancing, features) the panelists are asked to answer questions in a pairwise comparison test to determine the enhancement of sweet taste of the test substance with fructose relative to fructose only. Again the panelists are given samples. Two samples are prepared for direct comparison regarding sweetness. One sample contains fructose in a solvent and the other sample additionally contains the test substance. Designation of the samples with A and B is randomized and is decoded after the taste procedure. The questions to be answered are: 1) does one sample taste sweeter than the other?, 2) if so, which one?, 3) are there any other differences in the taste between the two samples? The result of the taste and spit assay is a qualitative evaluation of the differences between the two samples.
The taste of a sample of rosmarinic acid with regard to sweetness and fructose enhancing features was assessed by using a panel of trained sensory evaluators experienced in the sweet taste estimation procedure. 5 individuals were asked to taste the quality of single samples of 10 ml volume.
as §4, with “Panelists were” for “In these cases, panelists are”, “(20 μM test substance” for “(test substance, e.g.”, “acid in 0.5% ethanol)” for “acid)”, “were” for “are”, “could” for “can”, “required. […]” for “required.”

[4] = test compound without added enhancer/fructose, sodium cyclamate 30 mM, ATP 1 μM, ionomycin 1 μM, fructose 20 mM, rosmarinic acid 25 μM
[5] = 20 μM with 4% fructose in 0.5% ethanol

**Q.** For `Nc1ncnc2c1ncn2[C@@H]1O[C@H](COP(=O)(O)OP(=O)(O)OP(=O)(O)O)[C@@H](O)[C@H]1O` [ATP], which “Fluo4-AM fluorescence increase (activation) of the control cell line” value (from here on “Fluo4-AM fluorescence increase”) [1, 4] is on record?
**A.** Its value is “activate”.

**Q.** Which “Fluo4-AM fluorescence increase” value [1, 4] does the source give for `O=C(CO)[C@@H](O)[C@H](O)[C@H](O)CO` [fructose] here?
**A.** The value was “does neither activate”.

**Q.** Which “Fluo4-AM fluorescence increase” value [1, 4] does the source give for `C[C@H](CCC(=O)O)C[C@H](C)C[C@H](C)C(=O)/C=C(\O)[C@H](C)C[C@H](C)C/C=C/[C@@H](C)[C@@H](O)[C@@H](C)[C@@H](O)C[C@@H]1CC[C@@](C)([C@H]2CC[C@@](C)([C@@H](C)O)O2)O1` [ionomycin] here?
**A.** The value was “activate”.

**Q.** With `CC(C)NCC(O)c1ccc(O)c(O)c1` (stereo not shown) [isoproterenol] as the compound, how does the “Fluo4-AM fluorescence increase” value [1, 4] read?
**A.** Its value is “activate”.

**Q.** With `O=C(/C=C/c1ccc(O)c(O)c1)O[C@H](Cc1ccc(O)c(O)c1)C(=O)O` [rosmarinic acid] as the compound, how does the “Fluo4-AM fluorescence increase” value ([1]; rosmarinic acid 25 μM in the presence of fructose (20 mM)) read?
**A.** Its value is “does not activate”.

**Q.** And the “Fluo4-AM fluorescence increase” value [1, 4]?
**A.** The value was “does not activate”.

**Q.** And the “Time response in the cell assay” value ([2]; measured over ca. 1.5 minutes (86 seconds), FIG. 2)?
**A.** The value was “selective stimulation of receptor carrying cells”.

**Q.** And the “Fructose enhancing activity in the cell based in vitro assay” value ([2]; rosmarinic acid in the presence of fructose)?
**A.** Its value is “acting as a fructose enhancer; also recorded: enhances the activity of fructose; also recorded: acts as a fructose enhancer”.

**Q.** What about the “Off-taste or other taste (Phase I qualitative assessment)” value ([3]; 20 μM in 0.5% ethanol, 10 ml) of the same compound?
**A.** The value was “No off-taste or any other taste than sweetness was detected”.

**Q.** What about the “Taste quality of the single sample (Phase I qualitative assessment)” value ([3]; 20 μM in 0.5% ethanol, 10 ml, ambient temperature) of the same compound?
**A.** Its value is “no characteristic intrinsic taste”.

**Q.** And the “Panelists identifying the sample with 4% fructose plus test substance as sweeter than 4% fructose only (Phase II pairwise comparison)” value [3, 5]?
**A.** The value was “four”.

**Q.** And the “Panelists tasting no difference between the two samples (Phase II pairwise comparison)” value [3, 5]?
**A.** The value was “One”.

**Q.** For `O=S(=O)([O-])NC1CCCCC1.[Na+]` [sodium cyclamate], which “Fluo4-AM fluorescence increase” value [1, 4] is on record?
**A.** The value was “does not activate”.

Reference: patent US20120201935A1, “SWEETNESS ENHANCER, SWEETENER COMPOSITIONS, METHODS OF MAKING THE SAME AND CONSUMABLES CONTAINING THE SAME” (NUTRINOVA NUTRITION SPECIALTIES & FOOD INGREDIENTS GMBH, priority 2011, published 2012)
